Columns and labels:
[1] = system: SMN2 minigene mRNA (SMN2-A minigene) in HEK293H cells; experiment: SMN2 minigene mRNA splicing RT-qPCR assay in cultured cells; assay type: cell-based, human; conditions: Homo sapiens, HEK293-H; concentration increasing full length SMN2 mRNA 1.5-fold relative to vehicle-treated cells; HEK293H cells with SMN2-A minigene, 24 hours, 7-point concentration data; read-out: EC1.5x for production of full length SMN2 mRNA
Method in brief: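 Cells are seeded, left to attach 4-6 h, then dosed with test compound across seven concentrations and incubated 24 h. Lysates undergo RT-qPCR with primers/probe specific to the exon 7-containing minigene transcript, co-amplified with GAPDH. Fold change over vehicle is calculated, and EC1.5× marks the 1.5-fold point.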

[2] = system: Smn protein in SMA patient fibroblast cells (GM03813); experiment: Smn protein assay in cultured cells (SMN HTRF); assay type: cell-based, human; conditions: SMA patient fibroblast cells, 48 hours; for maximum fold (Fold) increase of Smn protein: 7-point concentration data, fold relative to vehicle control; for EC1.5x for Smn protein expression: 7-point concentration curve, SMN HTRF, concentration producing 1.5 times Smn protein vs DMSO vehicle control
Method in brief: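 Patient-derived SMA fibroblasts are plated, given compound for 48 h, then lysed in RIPA buffer with protease inhibitors. Lysate Smn is detected by an anti-SMN d2/kryptate HTRF pair incubated overnight. The normalized ΔF is divided by the vehicle ΔF to give fold change, from which EC1.5× and maximum fold are taken.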

| SMILES | EC (1.5-fold increase) [1] | maximum fold (Fold) increase of Smn protein [2] | melting point | EC1.5x for Smn protein expression [2] |
| --- | --- | --- | --- | --- |
| Cc1nc2cc(-c3cc(=O)n4cc(N5CCC(N)CC5)ccc4n3)ccc2s1 [Compound 348, 7-(4-aminopiperidin-1-yl)-2-(2-methyl-1,3-benzothiazol-5-yl)-4H-pyrido[1,2-a]pyrimidin-4-one] | 0.1 to 0.3 µM | ** (a fold increase between >1.2 and ≤1.35 is indicated by two stars (**)) | 190 to 192 °C | – |
| Cc1cn2nc(-c3cc(=O)n4cc(C5=CCN(C)CC5)ccc4n3)cc2c(C)n1 [Compound 350, 2-(4,6-dimethylpyrazolo[1,5-a]pyrazin-2-yl)-7-(1-methyl-1,2,3,6-tetrahydropyridin-4-yl)-4H-pyrido[1,2-a]pyrimidin-4-one] | < 0.1 µM | ***** (a fold increase >1.65 is indicated by five stars (*****)) | 193 to 197 °C | **** (an EC1.5x≤0.3 μM is indicated by four stars (****)) |
| CCN1CC=C(c2ccc3nc(-c4cc5c(C)nc(C)cn5n4)cc(=O)n3c2)CC1 [Compound 351, 2-(4,6-dimethylpyrazolo[1,5-a]pyrazin-2-yl)-7-(1-ethyl-1,2,3,6-tetrahydropyridin-4-yl)-4H-pyrido[1,2-a]pyrimidin-4-one] | < 0.1 µM | ***** (a fold increase >1.65 is indicated by five stars (*****)) | 202 to 204 °C | **** (an EC1.5x≤0.3 μM is indicated by four stars (****)) |
| CCCN1CC=C(c2ccc3nc(-c4cc5c(C)nc(C)cn5n4)cc(=O)n3c2)CC1 [Compound 352, 2-(4,6-dimethylpyrazolo[1,5-a]pyrazin-2-yl)-7-(1-propyl-1,2,3,6-tetrahydropyridin-4-yl)-4H-pyrido[1,2-a]pyrimidin-4-one] | < 0.1 µM | **** (a fold increase between >1.5 and ≤1.65 is indicated by four stars (****)) | 191 to 193 °C | **** (an EC1.5x≤0.3 μM is indicated by four stars (****)) |
| Cc1cn2nc(-c3cc(=O)n4cc(C5=CCN(C(C)C)CC5)ccc4n3)cc2c(C)n1 [Compound 355, 2-(4,6-dimethylpyrazolo[1,5-a]pyrazin-2-yl)-7-[1-(propan-2-yl)-1,2,3,6-tetrahydropyridin-4-yl]-4H-pyrido[1,2-a]pyrimidin-4-one] | < 0.1 µM | **** (a fold increase between >1.5 and ≤1.65 is indicated by four stars (****)) | 186 to 189 °C | *** (an EC1.5× between >0.3 μM and ≤1 μM is indicated by three stars (***)) |
| Cc1cn2nc(-c3cc(=O)n4cc(C5=CCN(C6CCC6)CC5)ccc4n3)cc2c(C)n1 [Compound 356, 7-(1-cyclobutyl-1,2,3,6-tetrahydropyridin-4-yl)-2-(4,6-dimethylpyrazolo[1,5-a]pyrazin-2-yl)-4H-pyrido[1,2-a]pyrimidin-4-one] | < 0.1 µM | **** (a fold increase between >1.5 and ≤1.65 is indicated by four stars (****)) | 191 to 193 °C | *** (an EC1.5× between >0.3 μM and ≤1 μM is indicated by three stars (***)) |
| COc1ccc(-c2cc(=O)n3cc(N4CCNCC4)c(C)cc3n2)cc1OC [Compound 360, 2-(3,4-dimethoxyphenyl)-8-methyl-7-(piperazin-1-yl)-4H-pyrido[1,2-a]pyrimidin-4-one] | 1 to 3 µM | * (A maximum fold increase of ≤1.2 is indicated by one star (*)) | 161 to 169 °C | – |
| COc1ccc(-c2cc(=O)n3cc(C4=CCN(C5CCC5)CC4)ccc3n2)cc1OC [Compound 362, 7-(1-cyclobutyl-1,2,3,6-tetrahydropyridin-4-yl)-2-(3,4-dimethoxyphenyl)-4H-pyrido[1,2-a]pyrimidin-4-one] | 0.3 to 1 µM | *** (a fold increase between >1.35 and ≤1.5 is indicated by three stars (***)) | 152 to 154 °C | – |
| COc1ccc(-c2cc(=O)n3cc(C4=CCN(C(C)C)CC4)ccc3n2)cc1OC [Compound 363, 2-(3,4-dimethoxyphenyl)-7-[1-(propan-2-yl)-1,2,3,6-tetrahydropyridin-4-yl]-4H-pyrido[1,2-a]pyrimidin-4-one] | 0.3 to 1 µM | ** (a fold increase between >1.2 and ≤1.35 is indicated by two stars (**)) | 116 to 118 °C | – |
| COc1ccc(-c2cc(=O)n3cc(C4=CCN(C5COC5)CC4)ccc3n2)cc1OC [Compound 364, 2-(3,4-dimethoxyphenyl)-7-[1-(oxetan-3-yl)-1,2,3,6-tetrahydropyridin-4-yl]-4H-pyrido[1,2-a]pyrimidin-4-one] | 1 to 3 µM | * (A maximum fold increase of ≤1.2 is indicated by one star (*)) | 178 to 180 °C | – |
| CCCN1CC=C(c2ccc3nc(-c4ccc(OC)c(OC)c4)cc(=O)n3c2)CC1 [Compound 365, 2-(3,4-dimethoxyphenyl)-7-(1-propyl-1,2,3,6-tetrahydropyridin-4-yl)-4H-pyrido[1,2-a]pyrimidin-4-one] | 0.1 to 0.3 µM | *** (a fold increase between >1.35 and ≤1.5 is indicated by three stars (***)) | 158 to 160 °C | – |
| CNC1CC=C(c2ccc3nc(-c4ccc(OC)c(OC)c4)cc(=O)n3c2)CC1 (stereo not drawn) [Compound 366, 2-(3,4-dimethoxyphenyl)-7-[4-(methylamino)cyclohex-1-en-1-yl]-4H-pyrido[1,2-a]pyrimidin-4-one] | < 0.1 µM | **** (a fold increase between >1.5 and ≤1.65 is indicated by four stars (****)) | 232 to 235 °C | **** (an EC1.5x≤0.3 μM is indicated by four stars (****)) |
| COc1ccc(-c2cc(=O)n3cc(C4=CCC(N(C)C)CC4)ccc3n2)cc1OC (stereo not drawn) [Compound 367, 2-(3,4-dimethoxyphenyl)-7-[4-(dimethylamino)cyclohex-1-en-1-yl]-4H-pyrido[1,2-a]pyrimidin-4-one] | < 0.1 µM | *** (a fold increase between >1.35 and ≤1.5 is indicated by three stars (***)) | 162 to 164 °C | * (An EC1.5× for Smn protein expression between >3 μM and ≤10 μM is indicated by one star (*)) |
| CCN(C)C1CC=C(c2ccc3nc(-c4ccc(OC)c(OC)c4)cc(=O)n3c2)CC1 (stereo not drawn) [Compound 368, 2-(3,4-dimethoxyphenyl)-7-{4-[ethyl(methyl)amino]cyclohex-1-en-1-yl}-4H-pyrido[1,2-a]pyrimidin-4-one] | < 0.1 µM | **** (a fold increase between >1.5 and ≤1.65 is indicated by four stars (****)) | 132 to 134 °C | *** (an EC1.5× between >0.3 μM and ≤1 μM is indicated by three stars (***)) |
| CCCN(C)C1CC=C(c2ccc3nc(-c4ccc(OC)c(OC)c4)cc(=O)n3c2)CC1 (stereo not drawn) [Compound 369, 2-(3,4-dimethoxyphenyl)-7-{4-[methyl(propyl)amino]cyclohex-1-en-1-yl}-4H-pyrido[1,2-a]pyrimidin-4-one] | < 0.1 µM | *** (a fold increase between >1.35 and ≤1.5 is indicated by three stars (***)) | 116 to 118 °C | ** (an EC1.5× between >1 μM and ≤3 μM is indicated by two stars (**)) |
| CCN1CC=C(c2ccc3nc(-c4ccc(OC)c(OC)c4)cc(=O)n3c2)CC1 [Compound 370, 2-(3,4-dimethoxyphenyl)-7-(1-ethyl-1,2,3,6-tetrahydropyridin-4-yl)-4H-pyrido[1,2-a]pyrimidin-4-one] | 0.1 to 0.3 µM | ***** (a fold increase >1.65 is indicated by five stars (*****)) | 170 to 172 °C | *** (an EC1.5× between >0.3 μM and ≤1 μM is indicated by three stars (***)) |
| COc1ccc(-c2ccc3nc(C4=CCNCC4)cc(=O)n3c2)cc1OC [Compound 371, 7-(3,4-dimethoxyphenyl)-2-(1,2,3,6-tetrahydropyridin-4-yl)-4H-pyrido[1,2-a]pyrimidin-4-one] | 0.1 to 0.3 µM | **** (a fold increase between >1.5 and ≤1.65 is indicated by four stars (****)) | 172 to 178 °C | *** (an EC1.5× between >0.3 μM and ≤1 μM is indicated by three stars (***)) |
| Cc1cn2cc(-c3cc(=O)n4cc(N5CCN(C(C)C)CC5)ccc4n3)cc(F)c2n1 [Compound 373, 2-(8-fluoro-2-methylimidazo[1,2-a]pyridin-6-yl)-7-[4-(propan-2-yl)piperazin-1-yl]-4H-pyrido[1,2-a]pyrimidin-4-one] | < 0.1 µM | **** (a fold increase between >1.5 and ≤1.65 is indicated by four stars (****)) | 260 to 264 °C | **** (an EC1.5x≤0.3 μM is indicated by four stars (****)) |

Reference: US11753407B2, “Compounds for treating spinal muscular atrophy” (PTC Therapeutics, Inc., priority 2012, dated 2023)
